Data set [1] relates to insulin resistance. More on the design: method as in Ma et al., 2015. As to conditions: high-fat diet-fed rats; ref Ma et al., 2015; cited from earlier work.
For another data set, the system named is zebrafish model. Details: method as in Lin et al., 2017; Hu et al., 2018. As to conditions: ref Lin et al., 2017, Hu et al., 2018; cited from earlier work.
In data set [2] the test system is human umbilical vein endothelial cells. More on the design: method as in Lin et al., 2017; Hu et al., 2018. Particulars: ref Lin et al., 2017, Hu et al., 2018; cited from earlier work.
Data set [3] is described as follows: Multi-component PK in rats after i.v. administration of ASEP. The format is in vivo, Sprague-Dawley rats. Particulars: for AUC(0-t) / AUC(0-inf) / clearance / MRT last / MRT inf / Vd / half-life: male, Sprague-Dawley, rat, iv; for AUC(0-t): read-out: AUC0-t; for AUC(0-inf): read-out: AUC0-∞; for clearance: read-out: Cl (converted); for MRT last: read-out: MRT0-t; for MRT inf: read-out: MRT0-∞; for Vd: read-out: Vd. The protocol:
The animal experiments were conducted in line with the Guide for the Care and Use of Laboratory Animals (published by the USA National Institutes of Health, NIH Publication no. 85-23, revised 1996), which were approved by the Animal Care and Use Committee of the College of Animal Science (College of Bee Science), Fujian Agriculture and Forestry University (Approval Number: […]2019004). […] All rats were acclimated to the facilities and environment for 7 days before the experiments. […] The gradient elution was carried out by the mobile phase water with 0.1% formic acid (A) and methanol (B). […] The column temperature and flow rate were at 35 °C and 0.5 ml/min, resepectively. 5 μl sample solution was injected for the HPLC-MS analysis. The electrospray ionization (ESI) source conditions were as follows: block heating temperature was kept at 400 °C; desolvation line temperature was set at 250 °C; dry gas (nitrogen) flow rate was kept at 15 L/min; and auxiliary gas (nitrogen) flow rate was 3 L/min. […] The plasma samples were separated by centrifugation, followed by storing at -20 °C before analysis. […] A DAS 3.0 software (Chinese Pharmacologic Society, Beijing, China) was used to calculate the noncompartmental PK parameters. All the results were presented as mean ± SD, and statistics analysis was done with a single-tailed Student's t test in the work.

For data set [4] the following is noted: after ASEP; ref Fan et al., 2015; cited from earlier work.
Data set [5] relates to insulin resistance. More on the design: method as in Kim et al., 2017. As to conditions: high-fat diet-fed mice; ref Kim et al., 2017; cited from earlier work.
Data set [6] is described as follows: Stability of the compounds in rat plasma (LC-MS validation). The format is in vitro ADME. From the text: According to the “Guidelines for non-clinical pharmacokinetics of drugs” issued by Centre for Drug Evaluation, National Medical Products Administration, China ([Guidelines for non-clinical pharmacokinetics of drugs, 2014]), the LC-MS method was validated by linearity, limits of detection (LOD), limits of quantification (LOQ), precision, accuracy, extraction recovery, matrix effect and stability of the 6 compounds in rat plasma. In brief, blank rat plasma was obtained from the other six rats. The standard mixture solution containing the 6 compounds (with the concentration of 1 mg/ml for each) was diluted with […] to prepare a series of working solution containing the 6 compounds (concentration level: 20, 50, 100, 250, 500 ng/ml and 1, 2.5, 5, 10, 25, 50, 100, 125 150, 200 μg/ml) and IS (2.5μg/ml). For calibration curve, 10 μl of the series of working solution containing the IS (2.5μg/ml) was added into 100 μl of blank plasma. Finally, 15 data points (2, 5, 10, 25, 50, 100, 250, 500 ng/ml and 1, 2.5, 5, 10, 12.5 15, 20 μg/ml) were used in the calibration curve linearity. Calibration curves were plotted by weighted linear regression of the peak area ratio of analyte to the IS against the related nominal concentration of the analyte. LOD and LOQ were defined as the detectable concentration at which the ratio of signal to noise was about 3 and 10, respectively ([Huang et al., 2019]). […] The extraction recovery and matrix effect were also assessed at the above-mentioned three concentration levels for the 6 ingredients in the spiked plasma samples ([Huang et al., 2019]). Stability was examined under the condition of setting un-treated plasma samples at ambient temperature for 6 h, and extracted plasma samples in auto-sampler for 10 h, as well as setting plasma samples for three freeze-thaw cycles and at −80°C for 15 days ([Guidelines for non-clinical pharmacokinetics of drugs, 2014]).

The mark [7] stands for this setting: plasma, 1.76 ml/kg, rat plasma, Low group: single i.v. 1.76 ml/kg of 5 times concentrated ASEP, mean ± SD, n=3.
Where [8] appears, read: plasma, 3.52 ml/kg, rat plasma, High group: single i.v. 3.52 ml/kg of 5 times concentrated ASEP, mean ± SD, n=3.

Structures are written as SMILES. Like-named read-outs stand apart in the source and are kept apart here.

As a reminder, the Vd is the apparent volume that relates the amount in the body to the concentration in plasma or blood. Take `O=C(/C=C/c1ccc(O)c(O)c1)O[C@@H]1C[C@](O)(C(=O)O)C[C@@H](O)[C@H]1O` [3-CQA, 3-caffeoylquinic acid]: in the data set on insulin resistance [1], the “effect on insulin resistance” value is given as “improve insulin resistance”. The “effect on VEGF-induced angiogenesis” value in the data set on zebrafish model is reported as “significant inhibitory effects”. Besides, in data set [2], the “effect on VEGF-induced angiogenesis” value is on record as “significant inhibitory effects”. In data set [3] (setting [7]), the AUC(0-t) was found to be 1830 ng·h/mL, the AUC(0-inf) turned out to be 1830 ng·h/mL, the clearance was 8.5 mL/min and the MRT last is 25.8 ± 1.2 min. In addition, in data set [3] (setting [7]), the MRT inf amounted to 25.8 ± 1.2 min and the Vd was determined as 0.26 ± 0.01 L. Also, in data set [3] (plasma, 1.76 ml/kg, rat plasma, Low group: single i.v. 1.76 ml/kg of 5 times concentrated ASEP, mean ± SD, n=3, read-out: t 1/2 (converted)), the half-life was 21.6 ± 0.6 min. Besides, in data set [3] (setting [8]), the AUC(0-t) was determined as 3410 ng·h/mL, the AUC(0-inf) was determined as 3420 ng·h/mL, the clearance is 9 mL/min and the MRT last amounted to 25.2 min. For the same compound, in data set [3] (setting [8]), the MRT inf was determined as 25.8 min and the Vd came out at 0.64 L. Further, the half-life in data set [3] (plasma, 3.52 ml/kg, rat plasma, High group: single i.v. 3.52 ml/kg of 5 times concentrated ASEP, mean ± SD, n=3, read-out: t 1/2 (converted)) is 48.6 min.

Regarding `COc1cc(/C=C/CO)cc(OC)c1O[C@@H]1O[C@H](CO)[C@@H](O)[C@H](O)[C@H]1O` [EB, eleutheroside B], the “PK profile in cerebral ischemia-reperfusion rats compared with the normal group” value in data set [4] was “accumulated”. The “effect on insulin resistance” value with insulin resistance [5] was “improve insulin resistance”. The “Stability, RE” value in data set [6] (extracted plasma samples, 10h in auto-sampler vials, high spiked level (HQC, 8000-16000 ng/mL)) is recorded as 1.92%; in data set [6] (extracted plasma samples, 10h in auto-sampler vials, low spiked level (LQC, 5-30 ng/mL)), 12.12%; in data set [6] (extracted plasma samples, 10h in auto-sampler vials, middle spiked level (MQC, 400-1600 ng/mL)), -0.97%; in data set [6] (rat plasma, 6h at room temperature, high spiked level (HQC, 8000-16000 ng/mL)) it was -4.48%; in data set [6] (rat plasma, 6h at room temperature, low spiked level (LQC, 5-30 ng/mL)), -5.59%; in data set [6] (rat plasma, 6h at room temperature, middle spiked level (MQC, 400-1600 ng/mL)), -14.91%. The “Stability, RE” value in data set [6] (rat plasma, freeze-thaw stability (three cycles), high spiked level (HQC, 8000-16000 ng/mL)) is -4.14%; in data set [6] (rat plasma, freeze-thaw stability (three cycles), low spiked level (LQC, 5-30 ng/mL)), 4.10%; in data set [6] (rat plasma, freeze-thaw stability (three cycles), middle spiked level (MQC, 400-1600 ng/mL)) it was -0.75%; in data set [6] (rat plasma, long-term stability (-80℃,15 days), high spiked level (HQC, 8000-16000 ng/mL)), 6.11%; in data set [6] (rat plasma, long-term stability (-80℃,15 days), low spiked level (LQC, 5-30 ng/mL)), -8.20%; in data set [6] (rat plasma, long-term stability (-80℃,15 days), middle spiked level (MQC, 400-1600 ng/mL)), -4.54%. For the same compound, in data set [3] (PK time points 2.5, 5, 10, 15 and 20 min after single i.v. 3.52 ml/kg of 5 times concentrated ASEP, preliminary examination), the “ingredient concentration in rat plasma” value was over 0.5 ng/mL. Besides, the AUC(0-t) in data set [3] (in vivo, 1.76 ml/kg) came to 3040 ng·h/mL; in data set [3] (in vivo, 3.52 ml/kg), 4530 ng·h/mL. Also, the AUC(0-inf) stood at 3060 ng·h/mL in data set [3] (in vivo, 1.76 ml/kg) and 4540 ng·h/mL in data set [3] (in vivo, 3.52 ml/kg). Besides, the clearance is 9.17 mL/min in data set [3] (in vivo, 1.76 ml/kg) and 12.3 mL/min in data set [3] (in vivo, 3.52 ml/kg). Besides, the MRT last in data set [3] (in vivo, 1.76 ml/kg) was 26.4 min; in data set [3] (in vivo, 3.52 ml/kg) it was 26.4 ± 0.6 min. In addition, the MRT inf was found to be 31.2 ± 0.6 min in data set [3] (in vivo, 1.76 ml/kg) and 30 ± 1.2 min in data set [3] (in vivo, 3.52 ml/kg). Besides, the Vd was 3.45 ± 0.1 L in data set [3] (in vivo, 1.76 ml/kg) and 3.38 ± 1.15 L in data set [3] (in vivo, 3.52 ml/kg). The half-life is 261 ± 6 min in data set [3] (in vivo, 1.76 ml/kg, read-out: t 1/2 (converted)); 190 ± 65.4 min in data set [3] (in vivo, 3.52 ml/kg, read-out: t 1/2 (converted)); at least 190 min in data set [3] (in vivo, read-out: t 1/2 (elimination in rat blood)).
